SMILES | melting point [°C]
Cc1cc(C)nc(NC(=O)NS(=O)(=O)c2ccccc2C(=O)N(C)C)c1 | 166 to 168
CCOCC1=C(C(=O)OCC)C(c2cccc(C#N)c2)C(C(=O)OCC)=C(CC)N1 (stereo unspecified) | 125
CC(C)(C)OC(=O)n1nnc(-c2ccccc2)c1I | 87 to 90
CCC(Cc1ccccc1)(C(=O)c1ccc(N(C)C)cc1)N(C)C (stereo unspecified) | 77 to 80
CC(=O)OC1CSC(Oc2cccc(C#N)c2)C(OC(C)=O)C1OC(C)=O (stereo unspecified) | 148 to 151
CCCOc1nsc(NC(=O)C(C)C)c1C(N)=O | 153 to 154
CC1(CN2CCN(N=Cc3ccc(OC(F)(F)F)cc3)CC2)Cn2cc([N+](=O)[O-])nc2O1 (stereo unspecified) | 189 to 191
CCc1ccc2oc(C(=O)Nc3ccc(-c4ccc(S(=O)(=O)NC(C(=O)OC)C(C)C)cc4)cc3)c(C)c2c1OC(C)C (stereo unspecified) | 182 to 184
O=[N+]([O-])c1ccc(Br)c2nsnc12 | 216 to 218
COC(=O)n1cc2c(c1)C(OC(C)=O)N=C(c1ccccc1Cl)c1cc(Cl)ccc1-2 (stereo unspecified) | 175 to 177
CC(=O)NCC#CCn1ccnc1 | 93 to 95
Cc1c(C)c2c(c(C)c1O)SC(C)O2 (stereo unspecified) | 125 to 127
CC1=C(C(=O)OCCCO[N+](=O)[O-])C(c2cccc([N+](=O)[O-])c2)C(C(=O)OCCCO[N+](=O)[O-])=C(N)N1 (stereo unspecified) | 145 to 146
O=C(Cc1ccccc1)N1CC2COCC2C1 (stereo unspecified) | 47.5 to 48.5
CC(=O)C(C#N)c1cccc(Cl)c1 (stereo unspecified) | 92 to 97
CCCCCC[C@@H](C)Oc1cc2sc(C(=O)OC)c(O)c2cc1[N+](=O)[O-] | 54 to 55
CCC(=O)c1cnc2c(c1)oc(=O)n2C | 110 to 112
O=C1Nc2ccc(Br)cc2C(c2ccccc2)=NC1O (stereo unspecified) | 190 to 192
C[C@@H]1CN(C(=O)OC(C)(C)C)C[C@H]2Cc3cc(F)cnc3N21 | 56.6 to 58.4
CCCCCCCCCCCCCCCCCCS(=O)c1cc2ccccc2cc1OC(C)=O (stereo unspecified) | 91 to 93
CNC(Cc1cc(Br)ccc1N)c1ccsc1C (stereo unspecified) | 72.5 to 74
NS(=O)(=O)c1ccc(-c2cccn2-c2ccc(Cl)cc2)cc1 | 179 to 181
O=S(N=Cc1ccccc1)c1nccnc1Cl (stereo unspecified) | 113 to 114
O=C1CC(COC(c2ccccc2)(c2ccccc2)c2ccccc2)=NC=C1OCc1ccccc1 | 233 to 235
O=C(OCc1ccccc1)C(C(=O)N1CC2C(=O)CCC(c3ccccc3)(c3ccccc3)C2C1)c1ccccc1 (racemic) | 210
O=C1C[C@H]2CCCC[C@]23c2cccn2CCN13 (relative stereo) | 122 to 123
CC(C)OC(=O)C(C(=O)OC(C)C)=C1SC2C(S1)N(C)CCN2C (stereo unspecified) | 93.6

SMILES | melting point [°C]
Clc1nnc(C(Cl)(Cl)Cl)s1 | 41
C/C(=C\c1ccc(Cc2cccnc2)cc1)C(=O)Oc1ccccc1 | 52 to 53
O=C(O)C(CC(=O)N1CCOCC1)NS(=O)(=O)c1ccc(-c2ccc(Cl)cc2)cc1 (stereo unspecified) | 144 to 146
CS(=O)C(c1ccc(Cl)cc1)c1ccc(Cl)cc1 (stereo unspecified) | 110
CC(C)(C)C1=CC(=S)N=N1 | 147 to 148
COc1ccc(CSC#N)cc1OCc1ccccc1 | 70 to 74
Cc1cc(Br)nc(Br)c1 | 77
N#Cc1cnc(-c2c(Cl)cc(C(F)(F)F)cc2Cl)[nH]1 | 210 to 212
O=S(=O)(Cl)c1ccc2ccc(Br)cc2c1 | 100 to 101
O=C(O)CCC(=O)OCCn1ccnc1 | 108 to 110
CC(=O)/C=C(\C)c1ccc(-c2ccccc2)c(Cl)c1 | 66 to 67
CC1CCC2(CC1S(=O)(=O)c1ccccc1)OCCO2 (stereo unspecified) | 105 to 106
COC(=O)C1c2ccccc2Oc2ccccc21 | 82
CCOC(=O)c1cn(-c2nc(NC(C)(C)C)c(F)cc2F)c2c(Br)c(F)c(F)cc2c1=O | 198 to 203
CCc1nc2c(cnn2CC)c(NC2CCOCC2)c1CNC(=O)c1cccc(C(=O)NCc2ccc(OC)c(-c3cccc(C=O)c3)c2)c1 | 118 to 121
CCN(CC)c1ccc(-c2cc(-c3ccc(C(=O)O)cc3)ccc2CCCNC2CCCC2)cc1C(C)(C)C | 255
CC(=O)N(C)Nc1ccnc2c(NC(=O)c3c(Cl)cccc3Cl)cccc12 | 215
CCCCc1oc2ccccc2c1C(=O)NCc1ccc2c(-c3ccc(Cl)cc3)c(O)ccc2c1 | 122 to 124
O=C(Nc1cccc(S(=O)(=O)NC2CC2)c1)c1cnn2c(C(F)F)cc(-c3ccc(Cl)cc3)nc12 | 262
Cc1ccccc1C=C(C(=O)O)C(=O)O | 197 to 200
O=C(O)c1ccc(C(F)(F)F)nc1C(F)(F)F | 102 to 104
CCCCC(C(=O)OCC)(C(=O)OCC)c1nc(C)nc2c1c(SC)nn2-c1c(Cl)cc(Cl)cc1Cl | 148 to 150
Cc1c(C=O)c2cnnc(OCc3ccccc3)c2n1Cc1ccccc1 | 147 to 149
COc1ccc(CNC(=O)c2ccc3n2Cc2ccccc2N(C(=O)c2ccc(-c4ccccc4C)c(C)c2)C3)cc1 | 127 to 128
CCN(CC)Cc1nc(-c2ncn3c2[C@@H]2CCN2C(=O)c2ccccc2-3)no1 | 209 to 211
N#CC1C=Cc2ccccc2N1C(=O)c1ccccc1 (stereo unspecified) | 153 to 154

Continued, values first:

melting point [°C] | SMILES
266 to 268 | CCc1ccc2[nH]c3c(=O)n(CCN(C)C)c4ccccc4c3c2c1
117 to 119 | c1ccc(N2c3ccccc3C3CN(CC45CC6CC(CC(C6)C4)C5)CCC32)cc1 (single isomer, unassigned; (+))
168 to 171 | COc1ccccc1COc1ccc2c(c1)C=C(C(=O)O)CCS2(=O)=O
135 to 137 | N#Cn1nc(-c2ccccc2)c(=O)cc1I
252 to 254 | O=C(O)CNC(=O)c1ccc(-c2ccc3nnn(Cc4ccc5ncccc5c4)c3n2)cc1F
159 to 161 | O=C(O)CC(=O)Oc1cccc(-c2cn3c(n2)sc2ccccc23)c1
97.6 | N#Cc1ccc(C[C@]23C[C@@H](O)CN2C(=O)N(c2cc(Cl)nc(Cl)c2)C3=O)cc1
194 to 196 | Cc1cc(N2CCCC(O)C2)c(S(C)(=O)=O)cc1C(=O)N=C(N)N (stereo unspecified)
168 to 172 | Cc1nc(N2CCc3ccccc3CC2)c(C#N)c(=O)n1O
87 to 89 | O=C(c1cccnc1)N1CCC(c2ccccc2)=N1
312 to 313 | COc1ccc(C2=Nc3ccc(N4CCCC4)cc3C(=O)C2)cc1
276 | COc1ccc(C2CCCCC2)cc1-c1csc(NC(=O)N2CCN(C(=O)C3CCOCC3)CC2)n1
166 | O=C(Nc1ccccc1)O[C@H]1COC(c2cc3ccccc3[nH]2)=N[C@@H]1c1ccccc1 (racemic)
166 to 168 | Cc1ccnc(-n2cc(C#N)ccc2=O)c1
178 to 180 | Nc1nc(N)c2cc(CCc3ccccc3)ccc2n1
220 | COc1ccc2[nH]c3c(c2c1)C(C)CNC3=O (stereo unspecified)
264 | CCc1cccc(C)c1CNc1cc(C(=O)O)cn2nc(C)nc12
247 to 249 | O=C(O)c1cccc(C23CC4CC(CC(C4)C2)C3)c1
264 | Cc1ccc2[nH]c(=O)c(C#N)c(Cl)c2c1
155 to 157 | c1ccc2c(c1)nc1n2CCCSC1
> 260 | Cc1sc2[nH]c(=S)nc(N)c2c1C
194 to 195 | c1ccc(C2CNc3c4c(nc5cccc(c35)O2)CCCC4)cc1 (stereo unspecified)
204 to 205 | COC(=O)c1ccccc1S(=O)(=O)NC(=O)Nc1nc(Cl)c(C)c(OC)n1
265 to 267 | COc1cc(F)ccc1-c1c(/C=C/C(=O)O)c2ccccc2c(=O)n1C(C)C

melting point [°C] | SMILES
184 to 188 | O=C(Nc1cccc2c(=O)cc(C(=O)O)oc12)c1ccc2c(c1)CC(COCc1ccccc1)O2 (stereo unspecified)
168 to 171 | Cc1ccc(-c2c(N)ncnc2Cl)cc1
78 to 83 | CC=CCn1c(C)c(CC)c2cnnc(OCc3ccc(F)cc3)c21
129 to 130 | O=C(NCc1ccccc1Br)c1ccc2cnccc2n1
82 to 84 | CC(C)c1ccc(O)c(C(C)C)c1NC(=O)CN1CCN(CCSc2nc3cccc(C(F)(F)F)c3o2)CC1
123 to 124 | CC1(C)CC(=O)c2c(nc(Cc3ccc(N)cc3)c3[nH]c4ccccc4c23)C1
155 to 157 | CC(=O)N1CCC(=C2c3ccc(Cl)cc3CCc3cccnc32)CC1
138 to 140 | COc1cc2c(cc1C(F)(F)F)N(C(=O)Nc1ccc(C)c(-c3cnccc3C)c1)CC2
167 to 169 | c1ccc2c(c1)NCc1cscc1N2
126 to 127 | CN(C)C=C1CSc2ccc(Cl)cc2C1=O
299 to 300 | Cn1c(=O)n(C)c2cc3c(N4CCN(C(=O)Nc5ccc([N+](=O)[O-])cc5)CC4)ncnc3cc21
93 to 94 | CCOc1nn(-c2ccc(C(F)(F)F)cn2)cc1CCCOc1ccc(CCC(=O)O)cc1OC(C)C
152 to 156 | COc1ccc(Cn2c(C)cc3cnnc(OCc4ccccc4)c32)cc1
158 | CCCc1ncnc(O)c1Cc1ccc(-c2ccccc2C#N)cc1
248 to 250 | CN(C)c1ccc(NC(=O)Cn2c(-c3ccc(Br)cc3)nc3cccnc32)cc1
287 to 290 | O=C(c1ccsc1)c1cccc(-c2c(O)c3ccc(Cl)cc3[nH]c2=O)c1
240 to 241 | C#Cc1cccc(Nc2ncnc3c2ccn3CCOC)c1
207 | Cc1nc2ccc(N3C[C@H](C(N)c4nccs4)OC3=O)cc2s1 (stereo partly specified)
135 | CCNc1nc2ccc(OC(F)(F)F)cc2s1
62 to 65 | Nc1cccc(CCCOCCCCCCNCC(O)c2cc(Cl)c(N)c(Cl)c2)n1 (stereo unspecified)
284 | NS(=O)(=O)c1nnc(NC(=O)c2cnn3c(C(F)F)cc(-c4ccc(C(F)(F)F)cc4)nc23)s1
190 to 192 | CC1CCC(=NNc2ccccc2)c2ncc(Br)c(=O)n21 (stereo unspecified)
132 to 133 | CC(=O)n1nc(-c2ccc(Cl)cc2)nc1C
132 to 134 | CC(=O)NCCC1CCc2ccc3nc(CO)oc3c21 (stereo unspecified)
